Test results reported in ChEMBL document CHEMBL1130309, “Syntheses and anticancer activity of ribonucleoside analogues containing thio-substituted five-membered heterocyclic base” (Bioorg Med Chem Lett, 1997).

Experiments:
SNB-19 [1] = assay: Compound was evaluated in vitro against NCI CNS cancer cell line SNB19; Not active; format: functional, cell-based, Homo sapiens
SNB-19 [2] = assay: Compound was evaluated in vitro against NCI CNS cancer cell line SNB19; format: functional, cell-based; conditions: Homo sapiens

SMILES | IC50 (SNB-19 [1]) | IC50 (SNB-19 [2])
Nc1nn([C@@H]2O[C@H](COCc3ccccc3)[C@@H](OCc3ccccc3)[C@H]2OCc2ccccc2)c(=S)s1 | Not Active | 
Nc1nn(C2O[C@H](CO)[C@@H](O)[C@H]2O)c(=S)s1 (some centres not stated) |  | 39.4 nM
